Like-named read-outs stand apart in the source and are kept apart here. Blank lines part the entries; values can stand above or below the molecule they belong to. Bridge positions count the residues as written; N and C are the ends. Peptide text beside a SMILES is read from it. * marks the point of attachment. X1 = CN(C)c1ccc2c(c1)Oc1cc(N(C)C)ccc1C21OC(=O)c2cc(NC(=O)C*)ccc21
Columns and labels:
[1] = test system: MCF‐7 breast cancer cells; experiment: Live cell confocal laser microscopy of TMR‐labeled peptides (cell membrane permeability); details: MCF‐7 cells, 3 μM TMR‐labeled peptide
ERα/LBD (ERα302–552) = target: T1, ERα/LBD (ERα302–552) (Homo sapiens, UniProt P03372); experiment: Fluorescence polarization (FP) direct binding of fluorescently labeled peptides to ERα/LBD
T1 construct: Recombinant ERα/LBD (ERα^302–552) was prepared as previously reported; made in house; host or cells: Escherichia coli BL21-CodonPlus-RP
T1 sequence (P03372 302-552): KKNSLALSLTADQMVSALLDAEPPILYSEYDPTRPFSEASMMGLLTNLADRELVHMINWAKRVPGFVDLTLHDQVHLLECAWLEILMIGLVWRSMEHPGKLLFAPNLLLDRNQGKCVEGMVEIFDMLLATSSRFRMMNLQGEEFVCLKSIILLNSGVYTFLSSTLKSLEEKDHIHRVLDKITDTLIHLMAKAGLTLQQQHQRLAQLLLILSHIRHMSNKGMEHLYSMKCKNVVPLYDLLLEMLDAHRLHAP
Method: The binding activity of cHLH‐ERα was examined by fluorescence polarization (FP) analysis.^[ [26], [29] ^] The cHLH peptides were labeled with tetramethylrhodamine (TMR) to provide the fluorescent cHLH peptide TMR‐cHLH‐ERα, and fluorescent TMR‐YT1‐RS as a negative control (Figure 1, Figure S2, Supporting Information).
1. Protein Expression and Purification
The plasmid encoding the LBD domain of ERα (ERα302-552), was prepared from the plasmid pF1KB7810 (Kazusa DNA Res. Inst. ) encoding the full length of Estrogen Receptor α as described by using pET -28a(+)vector [1]. […]
4. Fluorescence Polarization […]
Tris-HCl (pH 8.0), 25 mM NaCl, 10%(v/v) Glycerol, 1 mM TCEP as described. The concentration of FL-SRC1Box2 labeled with Fluorescein and TMR-cHLH-ERα and YT1-RS were determined from the absorption of Fluorescein or Tetramethylrhodamine. The respective peptide was incubated with ERα-LBD for 30 min in 20 mM Tris-HCl (pH 8.0), 25 mM NaCl with 1 mM 17β-estradiol, and the mixture was transferred into a 384-well microtiter well (Non-binding, Black, greiner bio -one) and the fluorescence polarization was measured on a spectrofluorometer (SpectraMax iD5, Molecular Devices) at 20 °C. The KD values were analyzed via a quadratic binding equation (Fig S5A, S5B) with the data fit to calculate by using KaleidaGraph 4.0 as described elsewhere. […]

Molecule: CC(C)C[C@@H]1NC(=O)[C@H](C)NC(=O)[C@H](C)NC(=O)[C@H](CC(C)C)NC(=O)[C@H](CCCCN)NC(=O)[C@H](C)NC(=O)[C@H](CCCCN)NC(=O)[C@H](CC(C)C)NC(=O)[C@H](C)NC(=O)[C@H](C)NC(=O)[C@H](CC(C)C)NC(=O)[C@H](CCCCN)NC(=O)CNC(=O)CNC(=O)CNC(=O)CNC(=O)CNC(=O)CNC(=O)CNC(=O)[C@H](CCC(=O)O)NC(=O)[C@H](CC(C)C)NC(=O)[C@H](CCCNC(=N)N)NC(=O)[C@H](CCCNC(=N)N)NC(=O)[C@H](CC(C)C)NC(=O)[C@H](CCC(=O)O)NC(=O)[C@H](CCCNC(=N)N)NC(=O)[C@H](CCC(=O)O)NC(=O)[C@H](CC(C)C)NC(=O)[C@H](CCCNC(=N)N)NC(=O)[C@H](CCCNC(=N)N)NC(=O)[C@H](CC(C)C)NC(=O)[C@H](CCC(=O)O)NC(=O)[C@H](CCCNC(=N)N)NC(=O)[C@H](CSCC(=O)Nc2ccc3c(c2)C(=O)OC32c3ccc(N(C)C)cc3Oc3cc(N(C)C)ccc32)NC(=O)CNC(=O)CSC[C@@H](C(N)=O)NC(=O)[C@H](Cc2ccc(O)cc2)NC(=O)[C@H](C)NC(=O)[C@H](CCCCN)NC1=O [TMR‐YT1‐RS] ({CH2CO}-GC(X1)RELRRLERELRRLEGGGGGGGKLAALKAKLAALKAYC-NH2; thioether N-39)
cell membrane permeability, confocal laser microscopy, 4 °C ([1]; 4 °C (pre‐chilled medium), fluorescence imaging): showed cell membrane permeability | cell membrane permeability, confocal laser microscopy, 37 °C ([1]; 5‐min incubation, 37 °C, 5% CO2, nuclei stained with Hoechst 33 342, fluorescence imaging): showed cell membrane permeability

Molecule: CC(C)C[C@@H]1NC(=O)[C@H](C)NC(=O)[C@H](C)NC(=O)[C@H](CC(C)C)NC(=O)[C@H](CCCCN)NC(=O)CNC(=O)CNC(=O)CNC(=O)CNC(=O)CNC(=O)CNC(=O)CNC(=O)[C@H](CCC(=O)O)NC(=O)[C@H](CC(C)C)NC(=O)[C@H](CCCNC(=N)N)NC(=O)[C@H](CCCNC(=N)N)NC(=O)[C@H](CC(C)C)NC(=O)[C@H](CCC(=O)O)NC(=O)[C@H](CCCNC(=N)N)NC(=O)[C@H](CCC(=O)O)NC(=O)[C@H](CC(C)C)NC(=O)[C@H](CCCNC(=N)N)NC(=O)[C@H](CCCNC(=N)N)NC(=O)[C@H](CC(C)C)NC(=O)[C@H](CCC(=O)O)NC(=O)[C@H](CCCNC(=N)N)NC(=O)[C@H](CSCC(=O)Nc2ccc3c(c2)C(=O)OC32c3ccc(N(C)C)cc3Oc3cc(N(C)C)ccc32)NC(=O)CNC(=O)CSC[C@@H](C(N)=O)NC(=O)[C@H](Cc2ccc(O)cc2)NC(=O)[C@H](C)NC(=O)[C@H](CCCCN)NC(=O)[C@H](CC(C)C)NC(=O)[C@H](CC(C)C)NC(=O)[C@H](CC(C)C)NC(=O)[C@H](CC(C)C)NC(=O)[C@H](CCCCN)NC(=O)[C@H](CC(C)C)NC(=O)[C@H](CCCCN)NC1=O [TMR‐cHLH‐ERα] ({CH2CO}-GC(X1)RELRRLERELRRLEGGGGGGGKLAALKLKLLLLKAYC-NH2; thioether N-39)
Kd (ERα/LBD (ERα302–552)): 0.285 µM

Kd (ERα/LBD (ERα302–552); FP, 20 nM labeled peptide, in the presence of 17β‐estradiol, 20 mM Tris-HCl pH 8.0, 25 mM NaCl, 30 min, 20 °C, quadratic binding equation (Fig S5A), read-out: K D value, binding to ERα/LBD): 7.8 µM
Molecule: CH3CO-C(FL)QLLTERHKILHRLLQEGSPSD-NH2 (Ac-C(fluorescein)QLLTERHKILHRLLQEGSPSD-NH2; not fully specified; printed as CH3CO-C(FL)QLLTERHKILHRLLQEGSPSD-NH2) [FL‐SRC1Box2, fluorescently labeled SRC1 box 2 peptide with the LXXLL motif, FP tracer, reference compound]

Reference: paper PMC12247020, “A Cyclized Helix‐Loop‐Helix Peptide as a Molecular Scaffold for Cell‐Membrane Permeable Inhibitors for the Interaction Between Estrogen Receptor α and Coactivator SRC1” (Chembiochem, 2025)
